Data: ChEMBL document CHEMBL1201862, “PubChem BioAssay data set” (2004)
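Results reflect a 48-hour exposure of cells in 96-well plates to compound at five concentrations. GI50 is the concentration that inhibits growth by half.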 The source made the active and inactive calls. No stated cut-off is given here; in the data, active = GI50 up to about 1.1 µM and inactive = higher.

Tests used:
Assay in all cases: inhibition of tumour cell growth, NCI panel, 48 h
SR = test system: SR
MDA-MB-435 = test system: MDA-MB-435
MDA-N = test system: MDA-N
OVCAR-4 = test system: OVCAR-4
UACC-62 = test system: UACC-62
HOP-62 = test system: HOP-62
HOP-92 = test system: HOP-92
CAKI-1 = test system: CAKI-1
T47D = test system: T47D
NCI-H460 = test system: NCI-H460
U-251 = test system: U-251
UACC-257 = test system: UACC-257
SK-MEL-5 = test system: SK-MEL-5
786-0 = test system: 786-0
OVCAR-5 = test system: OVCAR-5
NCI-H23 = test system: NCI-H23
SNB-75 = test system: SNB-75
UO-31 = test system: UO-31
HCC 2998 = test system: HCC 2998

Measured: GI50

Cc1ccc(NC(=O)c2ccccc2C(=O)O)cc1C
inactive: SR > 100 µM | MDA-MB-435 > 100 µM | MDA-N > 100 µM | OVCAR-4 > 100 µM | UACC-62 > 100 µM | HOP-62 > 100 µM | HOP-92 > 100 µM | CAKI-1 > 100 µM | T47D > 100 µM | NCI-H460 > 100 µM | U-251 > 100 µM | UACC-257 > 100 µM | SK-MEL-5 > 100 µM | 786-0 > 100 µM | OVCAR-5 > 100 µM | NCI-H23 > 100 µM | SNB-75 > 100 µM

CC1(C)SC2C(NC(=O)Cc3ccccc3)C(=O)N2C1C(=O)O (configuration not stated)
inactive: SR > 100 µM | MDA-MB-435 > 100 µM | MDA-N > 100 µM | OVCAR-4 > 100 µM | UACC-62 > 100 µM | HOP-62 > 100 µM | HOP-92 > 100 µM | CAKI-1 > 100 µM | T47D > 100 µM | UO-31 > 100 µM | NCI-H460 > 100 µM | U-251 > 100 µM | UACC-257 > 100 µM | SK-MEL-5 > 100 µM | 786-0 > 100 µM | OVCAR-5 > 100 µM | NCI-H23 > 100 µM | SNB-75 > 100 µM

O=C1NI(C#Cc2ccccc2)c2ccccc21
inactive: SR > 100 µM | MDA-MB-435 > 100 µM | MDA-N > 100 µM | OVCAR-4 53 µM | UACC-62 > 100 µM | HOP-62 > 100 µM | CAKI-1 > 100 µM | T47D 53 µM | UO-31 > 100 µM | NCI-H460 > 100 µM | U-251 60.3 µM | UACC-257 > 100 µM | SK-MEL-5 > 100 µM | 786-0 > 100 µM | NCI-H23 > 100 µM

COc1ccc2c(c1)/C(=C\c1c(Cl)nc3n1CCS3)C(=O)N2
inactive: MDA-MB-435 1.29 µM | MDA-N 1.48 µM | OVCAR-4 11.9 µM | UACC-62 4 µM | HOP-62 6.35 µM | HOP-92 46.5 µM | CAKI-1 7.48 µM | T47D 5.16 µM | UO-31 5.86 µM | HCC 2998 2.74 µM | NCI-H460 3.71 µM | U-251 5.37 µM | UACC-257 5.48 µM | SK-MEL-5 5.06 µM | 786-0 7.83 µM | OVCAR-5 13.5 µM | NCI-H23 11.2 µM | SNB-75 10.8 µM

CC(=O)/C(=C/c1ccccc1F)C(=O)c1ccccc1
inactive: MDA-MB-435 37.9 µM | MDA-N 37.9 µM | OVCAR-4 67.8 µM | UACC-62 37.2 µM | HOP-62 35.2 µM | HOP-92 91.8 µM | CAKI-1 > 100 µM | T47D 24.9 µM | UO-31 34.1 µM | HCC 2998 16.2 µM | NCI-H460 25.1 µM | U-251 29.6 µM | UACC-257 25.9 µM | SK-MEL-5 42.9 µM | 786-0 31.7 µM | OVCAR-5 > 100 µM | NCI-H23 32 µM | SNB-75 38.9 µM

Cc1ccccc1/N=C/N(C)C
inactive: SR 11.4 µM | MDA-MB-435 42.1 µM | MDA-N 37.5 µM | OVCAR-4 37.5 µM | UACC-62 41.9 µM | HOP-62 58.6 µM | HOP-92 48.3 µM | CAKI-1 > 100 µM | T47D 34 µM | UO-31 74.6 µM | U-251 39.4 µM | UACC-257 22 µM | SK-MEL-5 17.2 µM | 786-0 70.3 µM | OVCAR-5 72.8 µM | NCI-H23 19.2 µM | SNB-75 44.9 µM

NCCCNCCCCN1CCOC1=O
inactive: SR > 100 µM | MDA-MB-435 > 100 µM | MDA-N > 100 µM | UACC-62 > 100 µM | HOP-62 > 100 µM | CAKI-1 > 100 µM | T47D > 100 µM | UO-31 > 100 µM | HCC 2998 > 100 µM | NCI-H460 > 100 µM | U-251 > 100 µM | UACC-257 > 100 µM | SK-MEL-5 > 100 µM | 786-0 > 100 µM | OVCAR-5 > 100 µM | NCI-H23 > 100 µM | SNB-75 > 100 µM

COC(=O)C1OC(SCCN)C(O)C(O)C1O (configuration not stated)
inactive: SR > 100 µM | MDA-MB-435 > 100 µM | MDA-N > 100 µM | OVCAR-4 > 100 µM | UACC-62 > 100 µM | HOP-62 > 100 µM | HOP-92 > 100 µM | CAKI-1 > 100 µM | T47D > 100 µM | NCI-H460 > 100 µM | U-251 > 100 µM | UACC-257 > 100 µM | SK-MEL-5 > 100 µM | 786-0 > 100 µM | OVCAR-5 > 100 µM | NCI-H23 > 100 µM | SNB-75 > 100 µM

Cc1cc2nn(C3CCCCO3)nc2cc1C (configuration not stated)
inactive: SR > 100 µM | MDA-MB-435 > 100 µM | MDA-N > 100 µM | OVCAR-4 > 100 µM | UACC-62 > 100 µM | HOP-62 > 100 µM | CAKI-1 > 100 µM | T47D > 100 µM | UO-31 75.7 µM | HCC 2998 > 100 µM | NCI-H460 > 100 µM | U-251 > 100 µM | UACC-257 > 100 µM | SK-MEL-5 > 100 µM | 786-0 > 100 µM | OVCAR-5 > 100 µM | NCI-H23 > 100 µM | SNB-75 > 100 µM

CCOC1Oc2ccccc2-c2nc(SC)ncc21 (configuration not stated)
inactive: SR 87.1 µM | MDA-MB-435 > 100 µM | MDA-N 64.1 µM | OVCAR-4 > 100 µM | UACC-62 75.5 µM | HOP-92 29.2 µM | CAKI-1 > 100 µM | T47D 27.4 µM | UO-31 51.3 µM | NCI-H460 55.6 µM | U-251 > 100 µM | UACC-257 > 100 µM | SK-MEL-5 52.5 µM | 786-0 > 100 µM | OVCAR-5 > 100 µM | NCI-H23 > 100 µM | SNB-75 > 100 µM

c1ccc(/N=C(/Nc2ccccc2)N2CCCCC2)cc1
inactive: SR 73.6 µM | MDA-MB-435 41.6 µM | MDA-N 43.3 µM | OVCAR-4 > 100 µM | UACC-62 77.4 µM | HOP-62 > 100 µM | HOP-92 92 µM | CAKI-1 > 100 µM | T47D > 100 µM | UO-31 49.3 µM | NCI-H460 73.3 µM | U-251 > 100 µM | UACC-257 21.6 µM | SK-MEL-5 > 10 µM | 786-0 > 100 µM | OVCAR-5 > 100 µM | NCI-H23 > 100 µM | SNB-75 16.7 µM

O=[N+]([O-])c1ccc(Cl)cc1N/N=C/c1cccs1
inactive: SR > 100 µM | MDA-MB-435 > 100 µM | MDA-N > 100 µM | OVCAR-4 > 100 µM | UACC-62 > 100 µM | HOP-62 > 100 µM | CAKI-1 > 100 µM | T47D 26.4 µM | UO-31 > 100 µM | HCC 2998 > 100 µM | NCI-H460 > 100 µM | U-251 > 100 µM | UACC-257 > 100 µM | SK-MEL-5 > 100 µM | 786-0 > 100 µM | NCI-H23 > 100 µM | SNB-75 > 100 µM
